IC50 data for 21 molecules are collected here from patent publication US9573913B2, “Cathepsin cysteine protease inhibitors” (Merck Sharp & Dohme Corp., priority 2013, dated 2017).

One assay concerns the target human cathepsin K (UniProt P43236). Description: Cathepsin K Assay (hrbCat K). The assay is classed as biochemical. The conditions noted are these: Z-Leu-Arg-AMC substrate, pH 5.5, 15 min preincubation; read-out: hrbCat K (IP (nM)). The gist of the method:
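Human cathepsin K (0.4 nM) was preincubated 15 min at room temperature with compound in 50 mM MES pH 5.5, 2.5 mM EDTA, 2.5 mM DTT and 10% DMSO. Inhibition was fitted to a dose-response model.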

A further assay has as its target T1, human cathepsin F (Homo sapiens, UniProt Q9UBX1).
T1 sequence (Q9UBX1 271-484): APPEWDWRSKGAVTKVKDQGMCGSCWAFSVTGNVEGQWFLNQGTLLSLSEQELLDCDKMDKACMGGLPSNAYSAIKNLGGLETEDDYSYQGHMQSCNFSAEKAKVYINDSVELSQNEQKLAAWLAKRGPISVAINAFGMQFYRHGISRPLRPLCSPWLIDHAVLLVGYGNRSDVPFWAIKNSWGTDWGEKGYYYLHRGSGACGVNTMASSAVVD
Description: Cathepsin F assay (hCat F). The following applies: Z-Phe-Arg-AMC substrate, pH 5.5, 15 min preincubation; read-out: hCat F (IP (nM)). The assay is classed as biochemical. In a few lines:
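AMC release from Z-Phe-Arg-AMC, added at 8 μM, was monitored fluorometrically (360/460 nm) for 20 min after 10 nM enzyme and compound had been preincubated 15 min at room temperature. Buffer: MES 50 mM pH 5.5, EDTA and DTT 2.5 mM each, 10% DMSO. Compound DMSO dilutions spanned 500–0.025 μM (3-fold). Dose-response fitting gave % inhibition.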

A value given as a limit tells only on which side of the number the result lay.

On to `CC(C)[C@@H](C#N)NC(=O)[C@@H]1C[C@@H](F)CC[C@H]1c1nc(C(C)(C)C)oc1-c1ccc(N2CCS(=O)(=O)CC2)cc1` [Example 170, (1R,2R,5S)-2-(2-(tert-butyl)-5-(4-(1,1-dioxidothiomorpho-lino)phenyl)oxazol-4-yl)-N-((S)-1-cyano-2-methylpropyl)-5-fluorocyclohexane-carboxamide], for which the IC50 on human cathepsin K is 12 nM; on human cathepsin F, not below 10000 nM.

Regarding `CCC(C#N)NC(=O)[C@@H]1CCCC[C@H]1c1nc(-c2ccc(F)cn2)sc1-c1ccc(N2CCS(=O)(=O)CC2)cc1` (single isomer, unassigned) [Example 188, (1R,2R)-N-((S or R)-1-cyanopropyl)-2-(5-(4-(1,1-dioxidothiomorpho-lino)phenyl)-2-(5-fluoropyridin-2-yl)thiazol-4-yl)cyclohexane-carboxamide], the IC50 on human cathepsin K came out at 15.3 nM; at human cathepsin F, 6710 nM.

Consider `N#CC1(NC(=O)[C@@H]2C[C@@H](F)CC[C@H]2c2nc(-c3cncc(Cl)c3)sc2-c2ccc(N3CCS(=O)(=O)CC3)cc2)CC1` [Example 68, (1R,2R,5S)-2-(2-(5-chloropyridin-3-yl)-5-(4-(1,1-dioxidothiomorpho-lino)phenyl)thiazol-4-yl)-N-(1-cyanocyclopropyl)-5-fluorocyclohexane-carboxamide], for which the IC50 on human cathepsin K turned out to be 1.7 nM; on human cathepsin F, 2310 nM.

`CC(C#N)NC(=O)[C@@H]1C[C@@H](F)CC[C@H]1c1nc(-c2cncc(F)c2)sc1-c1ccc(N2CCS(=O)(=O)CC2)cc1` (single isomer, unassigned) [Example 127, (1R,2R,5S)-N-((R or S)-1-cyanoethyl)-2-(5-(4-(1,1-dioxidothiomorpho-lino)phenyl)-2-(5-fluoropyridin-3-yl)thiazol-4-yl)-5-fluorocyclohexane-carboxamide]: the values for the IC50 at human cathepsin K and at human cathepsin F were 42.5 nM and not below 10000 nM, respectively.

Consider `N#CC1(NC(=O)[C@@H]2CCCC[C@H]2c2nc(-c3cccc(C4CCOCC4)c3)sc2-c2ccc(N3CCS(=O)(=O)CC3)cc2)CC1` [Example 110, (1R,2R)-N-(1-cyanocyclopropyl)-2-(5-(4-(1,1-dioxidothiomorpho-lino)phenyl)-2-(3-(tetrahydro-2H-pyran-4-yl)phenyl)thiazol-4-yl)cyclohexane-carboxamide], for which the IC50 turned out to be 1.7 nM at human cathepsin K and 3330 nM at human cathepsin F.

Take `CC(C)(C)c1nc([C@@H]2CC[C@H](F)C[C@H]2C(=O)NC2(C#N)CC2)c(-c2ccc(N3CCS(=N)(=O)CC3)cc2)o1` [Example 13, (1R,2R,5S)-2-(2-(tert-Butyl)-5-(4-(1-imino-1-oxidothiomorpholino)phenyl)oxazol-4-yl)-N-(1-cyanocyclopropyl)-5-fluorocyclohexanecarboxamide]: the IC50 on human cathepsin K was 6 nM; at human cathepsin F, not below 10000 nM.

For `N#CC1(NC(=O)[C@@H]2CCCC[C@H]2c2nc(-c3ccc(F)cc3)sc2-c2ccc(N3CCS(=N)(=O)CC3)cc2)CC1` [Compound 5, (1R,2R)-N-(1-Cyanocyclopropyl)-2-(2-(4-fluorophenyl)-5-(4-(1-imino-1-oxidothiomorpholino)phenyl)thiazol-4-yl)cyclohexanecarboxamide], the IC50 on human cathepsin K worked out at 1.9 nM; at human cathepsin F it was 3330 nM.

Take `Cc1nc(C2CCCCC2C(=O)NCC#N)c(-c2ccc(C(=O)N3CCOCC3)cc2)s1` (racemic) [Example 246, N-(cyanomethyl)-2-(2-methyl-5-(4-(morpholine-4-carbonyl)phenyl)thi-azol-4-yl)cyclohexane-carboxamide]: the IC50 on human cathepsin K is 38.2 nM; at human cathepsin F, more than 10000 nM.

As for `N#CC1(NC(=O)[C@@H]2CCCC[C@H]2c2nc(-c3cccnc3)sc2-c2ccc(N3CCS(=O)(=O)CC3)cc2)CC1` [Example 37, (1R,2R)-N-(1-cyanocyclopropyl)-2-(5-(4-(1,1-dioxidothiomorpho-lino)phenyl)-2-(pyridin-3-yl)thiazol-4-yl)cyclohexane-carboxamide], the IC50 at human cathepsin K turned out to be 0.5 nM; at human cathepsin F, 2620 nM.

Regarding `CS(=O)(=O)N1CCN(C(=O)c2ccc(-c3sc(-c4ccc(F)cc4)nc3[C@@H]3CCCC[C@H]3C(=O)NC3(C#N)CC3)cc2)CC1` [Example 33, (1R,2R)-N-(1-cyanocyclopropyl)-2-(2-(4-fluorophenyl)-5-(4-(4-(methylsulfonyl)piperazine-1-carbonyl)phenyl)thi-azol-4-yl)cyclohexane-carboxamide], the IC50 was found to be 47 nM at human cathepsin K and 410 nM at human cathepsin F.

For the molecule `N#CC1(NC(=O)[C@@H]2CCCC[C@H]2c2nc(-c3cnc(N)nc3)sc2-c2ccc(N3CCS(=O)(=O)CC3)cc2)CC1` [Example 71, (1R,2R)-2-(2-(2-aminopyrimidin-5-yl)-5-(4-(1,1-dioxidothiomorpho-lino)phenyl)thiazol-4-yl)-N-(1-cyanocyclopropyl) cyclohexanecarbox-amide], the IC50 was 2.3 nM on human cathepsin K and 2320 nM on human cathepsin F.

`N#CC1(NC(=O)[C@@H]2CCCC[C@H]2c2nc([C@@H]3CCOC3)sc2-c2ccc(N3CCS(=O)(=O)CC3)cc2)CC1` [Example 155, (1R,2R)-N-(1-cyanocyclopropyl)-2-(5-(4-(1,1-dioxidothiomorpho-lino)phenyl)-2-((R)-tetrahydrofuran-3-yl)thiazol-4-yl)cyclohexane-carboxamide]: the values for the IC50 on human cathepsin K and on human cathepsin F were 4 nM and 1000 nM, respectively.

With `N#CC1(NC(=O)[C@@H]2CCCC[C@H]2c2nc(N3CCC(F)(F)C3)sc2-c2ccc(N3CCS(=O)(=O)CC3)cc2)CC1` [Example 153, (1R,2R)-N-(1-cyanocyclopropyl)-2-(2-(3,3-difluoropyrrolidin-1-yl)-5-(4-(1,1-dioxidothiomorpho-lino)phenyl)thiazol-4-yl)cyclohexane-carboxamide], the IC50 at human cathepsin K turned out to be 3.1 nM; on human cathepsin F, 1000 nM.

For `N#CCNC(=O)[C@@H]1C[C@@H](F)CC[C@H]1c1nc(-c2cncc(F)c2)sc1-c1ccc(N2CCS(=O)(=O)CC2)cc1` [Example 123, (1R,2R,5S)-N-(cyanomethyl)-2-(5-(4-(1,1-dioxidothiomorpho-lino)phenyl)-2-(5-fluoropyridin-3-yl)thiazol-4-yl)-5-fluorocyclohexane-carboxamide], the results for the IC50 on human cathepsin K and at human cathepsin F were 1.7 nM and 2490 nM, respectively.

Consider `CC1(C)CC(c2nc([C@@H]3CCCC[C@H]3C(=O)NC3(C#N)CC3)c(-c3ccc(N4CCS(=O)(=O)CC4)cc3)s2)CC(C)(C)O1` [Example 93, (1R,2R)-N-(1-cyanocyclopropyl)-2-(5-(4-(1,1-dioxidothiomorpho-lino)phenyl)-2-(2,2,6,6-tetramethyltetrahydro-2H-pyran-4-yl)thiazol-4-yl)cyclohexane-carboxamide], for which the IC50 at human cathepsin K is 14.1 nM; on human cathepsin F, not below 10000 nM.

With `N#CCNC(=O)[C@@H]1C[C@@H](F)CC[C@H]1c1nc(-c2ccc(F)cn2)sc1-c1ccc(N2CCS(=O)(=O)CC2)cc1` [Example 124, (1R,2R,5S)-N-(cyanomethyl)-2-(5-(4-(1,1-dioxidothiomorpho-lino)phenyl)-2-(5-fluoropyridin-2-yl)thiazol-4-yl)-5-fluorocyclohexane-carboxamide], the IC50 on human cathepsin K was determined as 1.8 nM; at human cathepsin F it was 3120 nM.

As for `Cc1nc([C@@H]2CCCC[C@H]2C(=O)NCC#N)c(-c2ccc(C(=O)N3CCOCC3)cc2)s1` [Example 12, (1R,2R)-N-(cyanomethyl)-2-(2-methyl-5-(4-(morpholine-4-carbonyl)phenyl)thiazol-4-yl)cyclohexanecarboxamide], the IC50 is 17 nM on human cathepsin K and 5170 nM at human cathepsin F.

On to `Cc1ccc(-c2nc([C@@H]3CC[C@H](F)C[C@H]3C(=O)NC3(C#N)CC3)c(-c3ccc(N4CCS(=O)(=O)CC4)cc3)s2)nn1` [Example 196, (1R,2R,5S)-N-(1-cyanocyclopropyl)-2-(5-(4-(1,1-dioxidothiomorpho-lino)phenyl)-2-(6-methylpyridazin-3-yl)thiazol-4-yl)-5-fluorocyclohexane-carboxamide], for which the IC50 at human cathepsin K is 2.4 nM; at human cathepsin F, 2020 nM.

In the case of `C[C@H](C#N)NC(=O)[C@@H]1C[C@@H](F)CC[C@H]1c1nc(-c2ccc(F)cn2)sc1-c1ccc(N2CCS(=O)(=O)CC2)cc1` [Example 129, (1R,2R,5S)-N-((R)-1-cyanoethyl)-2-(5-(4-(1,1-dioxidothiomorpho-lino)phenyl)-2-(5-fluoropyridin-2-yl)thiazol-4-yl)-5-fluorocyclohexane-carboxamide], the IC50 was 25.5 nM on human cathepsin K and not below 10000 nM at human cathepsin F.

`N#CC1(NC(=O)[C@@H]2CC3CC3C[C@H]2c2nc(-c3ccc(F)cn3)sc2-c2ccc(N3CCS(=O)(=O)CC3)cc2)CC1` (single isomer, unassigned) [Example 100, (1S or 1R,3R,4R,6R or 6S)-N-(1-cyanocyclopropyl)-4-(5-(4-(1,1-dioxidothiomorpho-lino)phenyl)-2-(5-fluoropyridin-2-yl)thiazol-4-yl)bicyclo[4.1.0] heptane-3-carboxamide]: the results for the IC50 on human cathepsin K and on human cathepsin F were 1.7 nM and 632 nM, respectively.

For the molecule `CC(C)(C)c1nc([C@@H]2CCCC[C@H]2C(=O)NC2(C#N)CC2)c(-c2ccc(N3CCS(=O)(=O)CC3)cc2)s1` [Example 20, (1R,2R)-2-(2-(tert-butyl)-5-(4-(1,1-dioxidothiomorpho-lino)phenyl)thiazol-4-yl)-N-(1-cyanocyclopropyl) cyclohexanecarbox-amide], the IC50 at human cathepsin K is 2.7 nM; on human cathepsin F it was 8630 nM.
